As usually defined, the pKa is the pH at which an ionisable group is half protonated. A lower pKa goes with a group that gives up its proton readily. As a reminder, the solubility is the dissolved amount per volume that the medium holds. A low value points to little dissolved substance.

One series is described as follows: pKa of API-001. The format is physicochemical. The text has this: (§1) API-001 has a pKa 6.8, being a weakly basic drug and having a solubility strongly influenced by pH of the medium.
Series [1] is described as follows: pH solubility profile of API-001. In kind it is physicochemical.
Excerpt: as §1
Therefore, it is expected that the extrusion-spheronization pellets of the invention to be absorbed over all the intestinal tract.

For `Cc1cc(OCCN2CCOCC2)nn1-c1ccc2ccccc2c1.Cl` [API-001, 4-{2-[5-Methyl-1-(naphthalen-2-yl)-1H-pyrazol-3-yloxy]ethyl}morpholine hydrochloride], the pKa in “pKa of API-001” turned out to be 6.8. Moreover, in series [1] (FIG. 2), the pH solubility profile result is “solubility of API-001 is decreasing when is increasing the pH of the medium”. Besides, in series [1] (pH 6.8, aqueous buffer), the solubility is 600 µg/mL.

The record behind these values is patent US9241927B2, “Pharmaceutical compositions comprising sigma receptor ligands” (Laboratories Del Dr, Esteve, S.A., priority 2009, dated 2016).
